Experiment [1] relates to ADP-induced aggregation of human platelets (PRP). In words: Platelet aggregation assay (Aggregation-Human/PRP/ADP). The note with it: human platelet rich plasma, ADP 20 μM. The format is cell-based. How it is done:
In addition to the ELISA integrin binding assays described above, the Aggregation-Human/PRP/ADP Assay is useful for evaluating therapeutic compounds.
Platelet rich plasma (PRP) is prepared from healthy human volunteers for use in determining inhibition of platelet aggregation by compounds. Blood was collected via a 21 gauge butterfly cannula, using a two-syringe technique into 1/10 volume of […] trisodium citrate.
Platelet rich plasma was prepared at room temperature by centrifugation of the citrated whole blood at 100×g for 15 minutes. The PRP contained approximately 200-400,000 platelets/μl. Platelet poor plasma was prepared by centrifugation of citrated whole blood at 12,000×g for 2 minutes.
Platelet aggregation was assayed in a Chrono-log whole blood aggregometer (Chrono-log Corporation, Havertown, Pa.) using the PRP prepared above according to the manufacturers directions. Inhibition of platelet aggregation was studied by adding varying amounts of test materials followed by adenosine diphosphate (ADP, 20 μM) to stirred human PRP. Specifically, the human PRP was incubated with the compound for 1-2 min. at 37° C. prior to addition of the aggregating agent ADP.

For experiment [2], the target named is T1, vitronectin receptor, αvβ3 (Homo sapiens, UniProt P05106+P06756).
T1 construct: After purification, the receptors were each stored in 0.1% Triton X-100 at 0.1-1.0 mg/ml; from tissue
T1 sequence (P06756 31-889 limits assumed): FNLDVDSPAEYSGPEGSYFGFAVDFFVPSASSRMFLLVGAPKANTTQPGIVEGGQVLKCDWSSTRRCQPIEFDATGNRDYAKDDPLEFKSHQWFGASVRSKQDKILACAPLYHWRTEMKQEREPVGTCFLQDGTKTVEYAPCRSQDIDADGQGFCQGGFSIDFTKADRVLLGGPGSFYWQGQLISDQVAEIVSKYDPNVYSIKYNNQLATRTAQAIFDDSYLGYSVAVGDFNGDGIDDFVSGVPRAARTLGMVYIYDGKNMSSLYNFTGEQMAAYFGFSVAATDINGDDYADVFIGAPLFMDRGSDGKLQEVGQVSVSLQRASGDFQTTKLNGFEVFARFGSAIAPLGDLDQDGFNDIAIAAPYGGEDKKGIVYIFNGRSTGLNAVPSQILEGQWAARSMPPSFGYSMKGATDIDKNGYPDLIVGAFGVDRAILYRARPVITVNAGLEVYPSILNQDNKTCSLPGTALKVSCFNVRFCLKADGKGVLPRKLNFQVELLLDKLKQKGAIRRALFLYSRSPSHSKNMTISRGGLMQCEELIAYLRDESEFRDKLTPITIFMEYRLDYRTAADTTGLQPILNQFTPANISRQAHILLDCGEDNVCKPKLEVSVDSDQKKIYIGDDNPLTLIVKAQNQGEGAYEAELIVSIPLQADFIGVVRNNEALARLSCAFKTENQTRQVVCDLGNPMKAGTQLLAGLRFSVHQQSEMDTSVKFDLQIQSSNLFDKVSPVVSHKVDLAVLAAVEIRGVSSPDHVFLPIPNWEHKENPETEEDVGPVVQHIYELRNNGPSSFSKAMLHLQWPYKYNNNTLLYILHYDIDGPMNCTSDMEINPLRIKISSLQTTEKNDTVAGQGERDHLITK
T1 sequence (P06756 891-1048 partner limits assumed): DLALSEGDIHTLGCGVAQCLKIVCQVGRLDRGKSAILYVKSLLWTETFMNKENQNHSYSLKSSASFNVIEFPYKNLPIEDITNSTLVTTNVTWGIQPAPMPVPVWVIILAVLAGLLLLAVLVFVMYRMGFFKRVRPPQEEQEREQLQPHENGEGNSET
T1 sequence (P05106 27-788): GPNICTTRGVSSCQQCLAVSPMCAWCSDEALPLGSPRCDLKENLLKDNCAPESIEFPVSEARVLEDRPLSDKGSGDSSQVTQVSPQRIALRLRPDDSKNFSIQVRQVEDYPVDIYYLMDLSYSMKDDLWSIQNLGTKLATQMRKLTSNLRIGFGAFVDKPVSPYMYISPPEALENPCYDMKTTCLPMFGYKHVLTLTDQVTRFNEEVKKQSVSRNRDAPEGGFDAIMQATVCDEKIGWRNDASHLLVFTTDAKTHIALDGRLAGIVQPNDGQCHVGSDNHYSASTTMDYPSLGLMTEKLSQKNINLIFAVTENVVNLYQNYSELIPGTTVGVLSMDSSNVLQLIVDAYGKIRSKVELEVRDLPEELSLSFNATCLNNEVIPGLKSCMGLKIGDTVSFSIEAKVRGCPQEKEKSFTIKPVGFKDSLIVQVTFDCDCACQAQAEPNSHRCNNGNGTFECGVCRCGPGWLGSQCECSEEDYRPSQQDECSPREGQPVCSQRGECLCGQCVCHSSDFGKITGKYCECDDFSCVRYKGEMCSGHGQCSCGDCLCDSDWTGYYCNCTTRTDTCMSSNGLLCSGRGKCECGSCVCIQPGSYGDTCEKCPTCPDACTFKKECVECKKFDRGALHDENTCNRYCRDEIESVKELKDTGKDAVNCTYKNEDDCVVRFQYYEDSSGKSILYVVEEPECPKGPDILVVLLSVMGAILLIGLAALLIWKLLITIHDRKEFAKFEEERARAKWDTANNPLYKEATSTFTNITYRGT
The experiment in a line: αvβ3 ELISA purified integrin binding assay (vitronectin binding). The note with it: inhibition of biotinylated vitronectin binding to immobilized purified αvβ3. How it is done:
(§1) In the following assays, GPIIb-IIIa and vitronectin receptor, αvβ3 were prepared in purified form, by methods described in Fitzgerald, L. A., et al., Anal Biochem (1985) 151: 169-177 and Smith, J. W., J. Biol Chem (1988) 263: 18726-18731 (the disclosure of which is incorporated herein by reference). GPIIb-IIIa or vitronectin receptor, αvβ3, are coated onto microtiter plates. The coated support is then contacted with fibrinogen for the GPIIb-IIIa assay, or is contacted with vitronectin for the vitronectin receptor, αvβ3 and with test materials and incubated for sufficient time to reach maximal ligand binding to immobilized integrins. The adhesive ligands fibrinogen or vitronectin were typically provided at a concentration of 2-50 nM and the test material can, if desired, be added at a series of diultions. […]
(§2) The corresponding ligands (fibrinogen, von Willebrand Factor, or vitronectin) were conjugated to biotin using commercially available reagents and standard protocols. […] After incubation, the wells were aspirated to dryness and bound ligand containing biotin label was quantitated.
(§3) The bound protein was detected by the addition of anti-biotin antibody conjugated to alkaline phosphatase followed by addition of substrate (p-nitrophenyl […] phosphate), and determination of the optical density of each well at […].

The next experiment concerns the target T2, GPIIb-IIIa (Homo sapiens, UniProt P05106+P08514).
T2 construct: Purified platelet GPIIb-IIIa was prepared by Fitzgerald, L. A., et al; from tissue; host or cells: platelets
The experiment in a line: GPIIb-IIIa ELISA purified integrin binding assay (fibrinogen binding). The note with it: inhibition of biotinylated fibrinogen binding to immobilized purified platelet GPIIb-IIIa; read-out: GPIIbIIIa ELISA (IC50 μM). The method, then: as §1, §2, §3

Some results are limits rather than exact numbers.

T2 sequence (P08514 32-887 limits assumed): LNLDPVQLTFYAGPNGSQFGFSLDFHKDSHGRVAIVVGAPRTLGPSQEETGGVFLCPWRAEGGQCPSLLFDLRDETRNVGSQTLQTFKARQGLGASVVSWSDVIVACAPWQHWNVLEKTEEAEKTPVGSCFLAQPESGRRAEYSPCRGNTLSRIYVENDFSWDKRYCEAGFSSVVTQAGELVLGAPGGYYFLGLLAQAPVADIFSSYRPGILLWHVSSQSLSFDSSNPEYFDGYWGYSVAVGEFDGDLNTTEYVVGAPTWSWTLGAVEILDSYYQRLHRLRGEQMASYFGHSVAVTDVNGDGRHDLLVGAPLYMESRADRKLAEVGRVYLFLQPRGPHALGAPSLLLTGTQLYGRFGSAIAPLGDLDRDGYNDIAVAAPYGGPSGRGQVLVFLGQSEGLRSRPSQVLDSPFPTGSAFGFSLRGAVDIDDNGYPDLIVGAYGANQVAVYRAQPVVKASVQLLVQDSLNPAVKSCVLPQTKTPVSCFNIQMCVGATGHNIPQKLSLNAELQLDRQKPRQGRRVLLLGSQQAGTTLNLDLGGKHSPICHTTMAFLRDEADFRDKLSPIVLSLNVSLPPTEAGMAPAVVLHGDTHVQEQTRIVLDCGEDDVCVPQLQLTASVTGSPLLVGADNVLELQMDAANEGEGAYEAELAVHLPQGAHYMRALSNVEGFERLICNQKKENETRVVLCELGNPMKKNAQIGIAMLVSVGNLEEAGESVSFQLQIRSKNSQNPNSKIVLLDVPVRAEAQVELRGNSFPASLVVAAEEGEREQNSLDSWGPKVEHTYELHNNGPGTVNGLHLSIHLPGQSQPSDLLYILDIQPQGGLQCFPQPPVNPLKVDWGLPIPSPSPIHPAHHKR
T2 sequence (P08514 891-1039 partner limits assumed): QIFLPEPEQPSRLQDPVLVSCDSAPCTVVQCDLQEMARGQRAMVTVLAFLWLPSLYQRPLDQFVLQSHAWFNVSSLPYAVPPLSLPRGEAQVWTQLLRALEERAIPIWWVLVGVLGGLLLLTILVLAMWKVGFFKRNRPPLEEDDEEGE
T2 sequence (P05106 27-788): as the sequence (P05106 27-788) above

As to `O=C(CNC(=O)C1CCNCC1)NCC(NS(=O)(=O)c1ccccc1)C(=O)O` (stereo not drawn) [Compound 16], the results for the IC50 (in experiment [1]; in experiment [2]; at GPIIb-IIIa) were 49.3 µM, more than 100 µM and 5 µM, respectively.
